Measurements published in patent US20120039917A1, “IMMUNO[…]” (priority 2008, published 2012).
Where two headings read alike, the source gives them in different places.

Assays:
resting T cells [1] = test: Cell viability measured by Trypan blue exclusion; type: cell-based, human; conditions: 10 μM PXD
Method: (§1) Immediately prior to experiments, frozen PBMC were thawed, centrifuged at 1400 rpm in a Multifuge 3 s (Heraeus) for 4 min, washed in RPMI+10% FCS and resuspended in T cell medium (RPMI+10% FCS+10 μM 2-mercaptoethanol (Sigma), 1×glutamine, 1×non-essential amino acids (Gibco)) at 2×10^6 cells/mL. Cells (2×10^5) were activated by adding 10 μg/mL anti-CD3 and 5 μg/mL anti-CD28 and 20 U/mL IL-2 per well. Cells were incubated at 37° C. in a humidified incubator maintained at 5% CO2 for 4 to 5 days until large numbers of large spherical aggregates or “bursts” of lymphocytes were observed. Activated proliferating T cells were pooled from the wells for further experiments. Resting T cells were incubated for the same length of time but in the presence of 20 U/mL IL-2 only.
(§2) Proliferating and resting PBMCs were centrifuged at 1400 rpm in a Multifuge 3 s (Heraeus) for 4 min at room temperature, resuspended in fresh T cell medium in 96 U-well plates (200 μL per well at densities of 2×10^6 cells/mL) in the presence of PXD or 0.1% DMSO and incubated in a 5% CO2, 37° C. humidified incubator. Viable cells, as determined by Trypan blue exclusion, were counted in a Neubauer haemocytometer every 24 h for several days.

proliferating T cells [2] = test: Cell viability measured by Trypan blue exclusion; type: cell-based, human; conditions: 10 μM PXD
Method: as §1, §2

resting T cells [3] = test: Cell proliferation measured by MTT reduction; type: cell-based; conditions: Homo sapiens, 48 h incubation, read-out: IC50 inhibition of MTT reduction (proliferation)
Method: as §1
(§3) MTT reduction was measured as previously described (Berridge et al., 1996) in a microplate format as follows: exponentially growing cells were centrifuged at 1400 rpm in a Multifuge 3 s (Heraeus) for 4 min, washed and resuspended in HBSS buffer. […] After 2 h, 100 μL of lysing buffer was added and formazan crystals dissolved by manual pipetting using a multichannel pipette before measuring A570 in a BMG FLUOstar OPTIMA plate reader. […]

proliferating T cells [4] = test: Cell proliferation measured by MTT reduction; type: cell-based; conditions: Homo sapiens, 48 h incubation, read-out: IC50 inhibition of MTT reduction (proliferation)
Method: as §1, §3

proliferating T cells [5] = test: Apoptosis/viability by Annexin V/propidium iodide staining; type: cell-based; conditions: Homo sapiens, T-cell
Method: as §1
Cells were centrifuged at 1400 rpm in a Multifuge 3 s (Heraeus) for 4 min at room temperature, washed in phosphate buffered saline solution, pH 7.3 (PBS) and resuspended in Annexin V binding buffer. Small aliquots (0.5-1×10^6 cells) were transferred to 1.5 mL tubes and spun at 1400 rpm in a Multifuge 3 s (Heraeus) for 4 min. Most supernatant was removed and 5 μL PI and 5 μL FITC-labelled AV was added to the wet pellets which were vortexed. After 30 min in the dark on ice, 500 μl of AV binding buffer was added, the cells were centrifuged for 2 min at 1400 rpm, washed once with AV binding buffer and resuspended in 300 μL of AV binding buffer in FACS tubes. Staining was analyzed by flow cytometry using a Becton Dickinson Canto II FACS analyser using FlowJo (TreeStar) software.
The extent of apoptosis in resting and proliferating T cells was determined after 24 h exposure to 10 μM PXD (FIG. 2) by AV/PI staining. […] Resting T cells were not affected (FIG. 2D). The percentage of viable proliferating T cells dropped from 74% (FIG. 2F) to 51% after exposure to 10 μM PXD for 24 h (FIG. 2H), whilst the percentage of viable resting T cells was unaltered (FIGS. 2B and D).
In order to investigate whether cells need to be exposed continually to PXD for its effects to manifest, proliferating T cells were exposed to 10 μM PXD for different periods of time, washed cells twice in RPMI and incubated for a further 24 h in fresh T cell medium.

MM-derived RPMI 8226 = test: Sensitivity of cell types to PXD, viability by AV/PI staining; type: cell-based, human; conditions: RPMI 8226, 10 μM PXD for 24 h
Method: FIG. 6. Sensitivity of different cell types to PXD. Different cell types were incubated with 10 μM PXD for 24 h and viability was determined by AV/PI staining and reported as [% viable blasts after PXD exposure]/[% viable blasts after 0.1% DMSO exposure]. Percentage values are as follows: AML-derived HL60: 16±5 and HL60p°: 54±6, ALL-derived MOLT-4: 44±4, MM-derived U226: 59±6 and RPMI 8226: 12±4, primary AML blasts: 64±5, primary ALL blasts: 23±4, normal BM: 89±5, proliferating T cells: 69±4, resting T cells: 98±6. Results from cell lines are presented as the average±SEM of at least 3 separate experiments, results from bone marrow samples are presented as the average±SD of single experiments performed in duplicate.
Cell lines were grown in RPMI-1640 medium (GIBCO-BRL, Grand Island, N.Y.) supplemented with 5% (v/v) fetal calf serum, 2 mM […], 25 μg/mL penicillin, 25 μg/mL streptomycin, 50 μg/mL uridine and 1 mM pyruvate to densities of 1-2×10^6 cells/mL (exponential stage), at 37° C. in a humidified incubator maintained at 5% CO2.
Cells were centrifuged at 1400 rpm in a Multifuge 3 s (Heraeus) for 4 min at room temperature, washed in phosphate buffered saline solution, pH 7.3 (PBS) and resuspended in Annexin V binding buffer. […] Staining was analyzed by flow cytometry using a Becton Dickinson Canto II FACS analyser using FlowJo (TreeStar) software.

[6] = system: late stage solid cancer patients; conditions: intravenous infusion, phase I; cited from earlier work

Q: For `Oc1ccc(C2=Cc3ccc(O)cc3OC2)cc1` [PXD, Isoflav-3-en-4′,7-diol], which “viability (Trypan blue exclusion)” value (resting T cells [1]) is on record?
A: The value was “remain viable”.

Q: And the “viability (Trypan blue exclusion)” value (proliferating T cells [2])?
A: The value was “severely compromised”.

Q: What about the IC50 (resting T cells [3]) of the same compound?
A: The IC50 was over 200 µM.

Q: What about the IC50 (proliferating T cells [4]) of the same compound?
A: The IC50 was 5.4 µM.

Q: What about the viability at 10 µM (proliferating T cells [5]; 24 h, 10 μM PXD for 24 h, control 74%, read-out: percentage of viable proliferating T cells (AV/PI)) of the same compound?
A: The viability at 10 µM was 51%.

Q: And the viability at 10 µM (proliferating T cells [5]; 24 h, proliferating T cells, 10 μM PXD for 24 h, read-out: [% viable blasts after PXD exposure]/[% viable blasts after 0.1% DMSO exposure])?
A: The viability at 10 µM was 69 ± 4%.

Q: What about the viability at 10 µM (proliferating T cells [5]; PXD pre-incubated in 10% FCS, 10 μM final, relative to 0.1% DMSO, read-out: % Viable cells after exposure time 24 h) of the same compound?
A: Its viability at 10 µM is 70 ± 7.1%.

Q: And the viability at 10 µM (proliferating T cells [5]; PXD pre-incubated in 10% FCS, 10 μM final, then 24 h, relative to 0.1% DMSO, read-out: % Viable cells after exposure time 1 min)?
A: The viability at 10 µM was 64 ± 4.6%.

Q: And the viability at 10 µM (proliferating T cells [5]; PXD pre-incubated in 10% FCS, 10 μM final, then 24 h, relative to 0.1% DMSO, read-out: % Viable cells after exposure time 10 min)?
A: Its viability at 10 µM is 60 ± 7.1%.

Q: What about the viability at 10 µM (proliferating T cells [5]; PXD pre-incubated in 90% FCS, 10 μM final, relative to 0.1% DMSO, read-out: % Viable cells after exposure time 24 h) of the same compound?
A: The viability at 10 µM was 69 ± 7.2%.

Q: And the viability at 10 µM (proliferating T cells [5]; PXD pre-incubated in 90% FCS, 10 μM final, then 24 h, relative to 0.1% DMSO, read-out: % Viable cells after exposure time 1 min)?
A: Its viability at 10 µM is 66 ± 4.2%.

Q: And the viability at 10 µM (proliferating T cells [5]; PXD pre-incubated in 90% FCS, 10 μM final, then 24 h, relative to 0.1% DMSO, read-out: % Viable cells after exposure time 10 min)?
A: Its viability at 10 µM is 62 ± 5.7%.

Q: What about the viability at 10 µM (proliferating T cells [5]; PXD pre-incubated in 90% Human Serum, 10 μM final, relative to 0.1% DMSO, read-out: % Viable cells after exposure time 24 h) of the same compound?
A: Its viability at 10 µM is 73.5 ± 9.2%.

Q: And the viability at 10 µM (proliferating T cells [5]; PXD pre-incubated in 90% Human Serum, 10 μM final, then 24 h, relative to 0.1% DMSO, read-out: % Viable cells after exposure time 1 min)?
A: Its viability at 10 µM is 69 ± 4.4%.

Q: What about the viability at 10 µM (proliferating T cells [5]; PXD pre-incubated in 90% Human Serum, 10 μM final, then 24 h, relative to 0.1% DMSO, read-out: % Viable cells after exposure time 10 min) of the same compound?
A: The viability at 10 µM was 72 ± 7.3%.

Q: What about the “[% viable blasts after PXD exposure]/[% viable blasts after 0.1% DMSO exposure]” value (MM-derived RPMI 8226) of the same compound?
A: Its value is 12±4%.

Q: And the “stabilization of disease after treatment, some patients” value [6]?
A: Its value is “up to 6 months”.

Q: What about the “well tolerated dose with minor side effects” value [6] of the same compound?
A: Its value is at most 30 mg/kg.
